Assay results reported in US6414030B1, “Use of benzenesulfonyl(thio)ureas for the treatment and prophylaxis of dysfunctions of the autonomous nervous system and use of benzenesulfonyl(thio)ureas in combination with beta-receptors blockers” (Aventis Pharma Deutschland, GmbH, priority 1998, dated 2002).
Marks after values point to notes of the source that are not given here.

Experiments:
[1] = system: chloroform-induced ventricular fibrillation in the mouse; experiment: Chloroform-induced ventricular fibrillation in the mouse (effect on vagal dysfunction), without and with atropine; type: in vivo; conditions: n = 10, untreated control 100%; for Proportion of fibrillation (in %) with atropine (1 mg/kg i.v.): plus atropine 1 mg/kg i.v.
Experimental: The substances were investigated using the model of chloroform-induced ventricular fibrillation in the mouse (see J. W. Lawson, Antiarrhythmic activity of some isoquinoline derivatives determined by a rapid screening procedure in the mouse; J. Pharmacol. Exp. Ther. 1968, 160, 22-31). […] After 30 minutes, the mouse was anesthetized with chloroform in a beaker. As soon as, in deep anesthesia, respiratory arrest had occurred (toxic anesthesia stage), the thorax of the animal was opened using a pair of scissors and the heartbeat was inspected visually. Here, it is possible to determine on first sight whether the heart is beating, fibrillating or arrested. The respiratory arrest triggered by chloroform leads, via absolute anoxia (lack of oxygen) in combination with a direct stimulating effect of chloroform on the sympathetic nervous system, to a potent stimulation of the sympathicus, which in turn in combination with the energy deficit in the heart caused by lack of oxygen results in fatal arrhythmia, i.e. ventricular fibrillation. This toxic chloroform anesthesia led to ventricular fibrillation in 100% of the untreated mice (control).

[2] = system: chloroform-induced ventricular fibrillation in the mouse; experiment: Chloroform-induced ventricular fibrillation in the mouse: combinations of compounds of the formula I with beta-receptor blockers; type: in vivo; conditions: n = 30, untreated control 100%
Experimental: The substances were investigated using the model of chloroform-induced ventricular fibrillation in the mouse (see J. W. Lawson, Antiarrhythmic activity of some isoquinoline derivatives determined by a rapid screening procedure in the mouse; J. Pharmacol. Exp. Ther. 1968, 160, 22-31). The test substance was dissolved in a mixture of dimethyl sulfoxide (DMSO) and 10% strength sodium bicarbonate solution and administered intraperitoneally (i.p.). After 30 minutes, the mouse was anesthetized with chloroform in a beaker. As soon as, in deep anesthesia, respiratory arrest had occurred (toxic anesthesia stage), the thorax of the animal was opened using a pair of scissors and the heartbeat was inspected visually. Here, it is possible to determine on first sight whether the heart is beating, fibrillating or arrested. The respiratory arrest triggered by chloroform leads, via absolute anoxia (lack of oxygen) in combination with a direct stimulating effect of chloroform on the sympathetic nervous system, to a potent stimulation of the sympathicus, which in turn in combination with the energy deficit in the heart caused by lack of oxygen results in fatal arrhythmia, i.e. ventricular fibrillation. This toxic chloroform anesthesia led to ventricular fibrillation in 100% of the untreated mice (control).
The active compounds were administered i.v. (intravenously) or i.p. (intraperitoneally). In one experiment, 10 mg/kg of 1-[[5-[2-(5-chloro-2-methoxybenzamido)ethyl]-2-methoxyphenyl]sulfonyl]-3-methylthiourea sodium salt (see Example 4; dissolved in DMSO/10% strength sodium bicarbonate solution) were combined with 0.3 mg/kg of propanolol (dissolved in distilled water), a standard beta-blocker. […] The proportion of fibrillation could be lowered further than with the individual substances, in a statistically significant manner. For comparison, a 10 times higher dose of 3 mg/kg of propanolol was used. […] In another experiment, 3 mg/kg of 1-[[5-[2-(5-tert-butyl-2-methoxybenzamido)ethyl]-2-methoxyphenyl]sulfonyl]-3-methylthiourea (Example 1) and 3 mg/kg of atenolol were combined in an analogous manner.

[3] = 3 mg/kg i.p., chloroform anesthesia after 30 minutes

## CNC(=S)NS(=O)(=O)c1cc(CCNC(=O)c2cc(Cl)ccc2OC)ccc1OC.[Na] [1-[[5-[2-(5-chloro-2-methoxybenzamido)ethyl]-2-methoxyphenyl]sulfonyl]-3-methylthiourea sodium salt]
[1]; 10 mg/kg i.p.
  Proportion of fibrillation (in %) without atropine: 50%#
  Proportion of fibrillation (in %) with atropine (1 mg/kg i.v.): 90%*
[2]; single substance 10 mg/kg i.v.
  Proportion of fibrillation in %: 50%*

## CNC(=O)NS(=O)(=O)c1cc(CCNC(=O)c2cc(C(C)(C)C)ccc2OC)ccc1OC [Example 2, 1-[[5-[2-(5-tert-Butyl-2-methoxybenzamido)ethyl]-2-methoxyphenyl]sulfonyl]-3-methylurea]
[1]; 1 mg/kg i.p.
  Proportion of fibrillation (in %) without atropine: 60%#
  Proportion of fibrillation (in %) with atropine (1 mg/kg i.v.): 100%*

## CC(C)NCC(O)COc1ccc(CC(N)=O)cc1 (stereo not drawn) [atenolol]
[2]; single substance 3 mg/kg i.v.
  Proportion of fibrillation in %: 48%*

## CNC(=S)NS(=O)(=O)c1cc(CCNC(=O)c2cc(C(C)(C)C)ccc2OC)ccc1OC [Example 1, 1-[[5-[2-(5-tert-Butyl-2-methoxybenzamido)ethyl]-2-methoxyphenyl]sulfonyl]-3-methylthiourea]
[1]; [3]
  Proportion of fibrillation (in %) without atropine: 30%#
[1]; 3 mg/kg i.p.
  Proportion of fibrillation (in %) with atropine (1 mg/kg i.v.): 90%*
[2]; single substance 3 mg/kg i.p.
  Proportion of fibrillation in %: 53%*

## C[N+](C)(C)CCOC(N)=O [carbachol, reference compound]
[1]; 60 μg/kg i.v.
  Proportion of fibrillation (in %) without atropine: 60%#
  Proportion of fibrillation (in %) with atropine (1 mg/kg i.v.): 100%*

## CC(C)NCC(O)COc1cccc2ccccc12 (stereo not drawn) [propranolol]
[2]; single substance 0.3 mg/kg i.v.
  Proportion of fibrillation in %: 37%*
[2]; single substance 3 mg/kg i.v.
  Proportion of fibrillation in %: 17%*

## CNC(=S)NS(=O)(=O)c1cc(CCNC(=O)c2cc(Cl)ccc2OC)ccc1OCCOC [Example 5, 1-[[5-[2-(5-Chloro-2-methoxybenzamido)ethyl]-2-(2-methoxyethoxy)phenyl]sulfonyl]-3-methylthiourea]
[1]; 10 mg/kg i.p.
  Proportion of fibrillation (in %) without atropine: 60%#
  Proportion of fibrillation (in %) with atropine (1 mg/kg i.v.): 100%*

## CNC(=S)NS(=O)(=O)c1cc(CCNC(=O)c2cc(C(C)C)ccc2OC)ccc1OC [Example 3, 1-[[5-[2-(5-lsopropyl-2-methoxybenzamido)ethyl]-2-methoxyphenyl]sulfonyl]-3-methylthiourea]
[1]; [3]
  Proportion of fibrillation (in %) without atropine: 60%#

## CNC(=O)Oc1ccc2c(c1)[C@]1(C)CCN(C)[C@@H]1N2C [physostigmine, reference compound]
[1]; 1 mg/kg s.c.
  Proportion of fibrillation (in %) without atropine: 70%#
  Proportion of fibrillation (in %) with atropine (1 mg/kg i.v.): 100%*
